Test results: patent EP0052437A1, “Antibacterial compounds, processes for their preparation and compositions containing them” (BEECHAM GROUP PLC, priority 1980, dated 1982)
In brackets after ≈: the same amount, converted by molar mass.

Tests used:
Assay type in all cases: cell-based
M. pneumoniae ATCC 15492 = assay: Anti-mycoplasmal in vitro MIC; settings: Mycoplasmoides pneumoniae, ATCC15492, 144 h, Friis broth solidified with 0.9% agarose, 6 days incubation at 37°C
M. hyorhinis ATCC 25021 = assay: Anti-mycoplasmal in vitro MIC; settings: Mesomycoplasma hyorhinis, ATCC25021, 144 h, Friis broth solidified with 0.9% agarose, 6 days incubation at 37°C
[1] = tested on: M. suipneumoniae J2206/183b; assay: Anti-mycoplasmal in vitro MIC; settings: Mesomycoplasma hyopneumoniae, 144 h, Friis broth solidified with 0.9% agarose, 6 days incubation at 37°C
[2] = tested on: Treponema hyodysenterial Navis; assay: Swine dysentery MIC (inhibition of β-haemolysis); settings: 72 h, Strain Navis, horse blood agar, 37°C for 3 days, anaerobic, lowest concentration to inhibit β-haemolysis
Experimental: (§1) The activity of the compounds of Examples 2 and 3 against various strains of Treponema hyodysenterial, associated with swine dysentry, were determined.
(§2) MIC values (µg/ml) of the compounds were determined by incorporating the compounds in horse blood agar, inoculating (multi-point) with 0.001 ml of 3 day growth from base of blood slope (+ 1 ml foetal calf serum) and incubating at 37°C for 3 days under aneorobic conditions (Gas Pak 150). The MIC values were taken as the lowest concentrations to inhibit β-haemolysis.

[3] = tested on: Treponema hyodysenterial P23; assay: Swine dysentery MIC (inhibition of β-haemolysis); settings: 72 h, Strain P23, horse blood agar, 37°C for 3 days, anaerobic, lowest concentration to inhibit β-haemolysis
Experimental: as §1, §2

[4] = tested on: Treponema hyodysenterial S77/10; assay: Swine dysentery MIC (inhibition of β-haemolysis); settings: 72 h, Strain S77/10, horse blood agar, 37°C for 3 days, anaerobic, lowest concentration to inhibit β-haemolysis
Experimental: as §1, §2

[5] = tested on: Treponema hyodysenterial S77/2; assay: Swine dysentery MIC (inhibition of β-haemolysis); settings: 72 h, Strain S77/2, horse blood agar, 37°C for 3 days, anaerobic, lowest concentration to inhibit β-haemolysis
Experimental: as §1, §2

[6] = tested on: Treponema hyodysenterial B10; assay: Swine dysentery MIC (inhibition of β-haemolysis); settings: 72 h, Strain B10, horse blood agar, 37°C for 3 days, anaerobic, lowest concentration to inhibit β-haemolysis
Experimental: as §1, §2

M. bovis NCTC 10131 = assay: microbe, parasite or virus in culture; settings: NCTC10131, 144 h
M. suipneumoniae JF 435 = assay: Anti-mycoplasmal in vitro MIC; settings: Mesomycoplasma hyopneumoniae, JF435, 144 h, Friis broth solidified with 0.9% agarose, 6 days incubation at 37°C
M. suipneumoniae NB12 = assay: Anti-mycoplasmal in vitro MIC; settings: Mesomycoplasma hyopneumoniae, 144 h, Friis broth solidified with 0.9% agarose, 6 days incubation at 37°C
M. suipneumoniae LABER = assay: Anti-mycoplasmal in vitro MIC; settings: Mesomycoplasma hyopneumoniae, 144 h, Friis broth solidified with 0.9% agarose, 6 days incubation at 37°C
Bacillus subtilis 6633 = assay: Human bacteria MIC; settings: nutrient agar with 5% chocolated horse blood, 18 hours at 37°C
Experimental: (§3) The values were determined by serial dilutions in nutrient agar with 5% chocolated horse blood after incubations for 18 hours at 37 °C.

Strep. faecalis I = assay: Human bacteria MIC; settings: Enterococcus faecalis, nutrient agar with 5% chocolated horse blood, 18 hours at 37°C
Experimental: as §3

Strep. pneumoniae CN33 = assay: Human bacteria MIC; settings: Streptococcus pneumoniae, nutrient agar with 5% chocolated horse blood, 18 hours at 37°C
Experimental: as §3

[7] = tested on: Haemophilus influenzae Wy21; assay: Human bacteria MIC; settings: nutrient agar with 5% chocolated horse blood, 18 hours at 37°C
Experimental: as §3

[8] = tested on: Neisseria catarrhalis 1502; assay: Human bacteria MIC; settings: nutrient agar with 5% chocolated horse blood, 18 hours at 37°C
Experimental: as §3

E. coli ESS = assay: Human bacteria MIC; settings: Escherichia coli, nutrient agar with 5% chocolated horse blood, 18 hours at 37°C
Experimental: as §3

[9] = tested on: Corynebacterium xerosis 9755; assay: Human bacteria MIC; settings: nutrient agar with 5% chocolated horse blood, 18 hours at 37°C
Experimental: as §3

Sarcina lutea 8340 = assay: Human bacteria MIC; settings: Micrococcus luteus, nutrient agar with 5% chocolated horse blood, 18 hours at 37°C
Experimental: as §3

[10] = tested on: Haemophilus influenzae Q1; assay: Human bacteria MIC; settings: nutrient agar with 5% chocolated horse blood, 18 hours at 37°C
Experimental: as §3

[11] = tested on: M. suipneumoniae PW/C/210; assay: Anti-mycoplasmal in vitro MIC; settings: Mesomycoplasma hyopneumoniae, 144 h, Friis broth solidified with 0.9% agarose, 6 days incubation at 37°C
[12] = tested on: M. suipneumoniae ATCC 25095; assay: Anti-mycoplasmal in vitro MIC; settings: Mesomycoplasma hyopneumoniae, ATCC25095, 144 h, Friis broth solidified with 0.9% agarose, 6 days incubation at 37°C
M. suipneumoniae TAM 6N = assay: Anti-mycoplasmal in vitro MIC; settings: Mesomycoplasma hyopneumoniae, TAM6N, 144 h, Friis broth solidified with 0.9% agarose, 6 days incubation at 37°C
Strep. 2788-B = assay: Human bacteria MIC; settings: nutrient agar with 5% chocolated horse blood, 18 hours at 37°C
Experimental: as §3

[13] = tested on: Strep. pyogenes R80/421-A; assay: Human bacteria MIC; settings: Streptococcus pyogenes, nutrient agar with 5% chocolated horse blood, 18 hours at 37°C
Experimental: as §3

[14] = tested on: Treponema hyodysenterial TH3; assay: Swine dysentery MIC (inhibition of β-haemolysis); settings: 72 h, Strain TH3, horse blood agar, 37°C for 3 days, anaerobic, lowest concentration to inhibit β-haemolysis
Experimental: as §1, §2

[15] = tested on: Treponema hyodysenterial S73/2; assay: Swine dysentery MIC (inhibition of β-haemolysis); settings: 72 h, Strain S73/2, horse blood agar, 37°C for 3 days, anaerobic, lowest concentration to inhibit β-haemolysis
Experimental: as §1, §2

Row | Structure (SMILES) | MIC (M. pneumoniae ATCC 15492) | MIC (M. hyorhinis ATCC 25021) | MIC [1] | MIC (M. bovis NCTC 10131) | MIC (M. suipneumoniae JF 435) | MIC (M. suipneumoniae NB12) | MIC (M. suipneumoniae LABER) | MIC (Bacillus subtilis 6633) | MIC (Strep. faecalis I) | MIC (Strep. pneumoniae CN33) | MIC [7] | MIC [8] | MIC (E. coli ESS) | MIC [9] | MIC (Sarcina lutea 8340) | MIC [10] | MIC [11] | MIC [12] | MIC (M. suipneumoniae TAM 6N) | MIC (Strep. 2788-B) | also measured
1 | C/C(=C\C(=O)OCc1cccc(C#N)c1)CC1OCC(CC2OC2C(C)C(C)O)C(O)C1O (centres unmarked) [Example 2, m-Cyanobenzyl monate A] | 0.5 µg/mL (≈ 1.09 µM) | 0.025 µg/mL (≈ 0.0544 µM) | 0.05 µg/mL (≈ 0.109 µM) | ≤ 0.01 µg/mL | 0.1 µg/mL (≈ 0.218 µM) | 0.05 µg/mL (≈ 0.109 µM) | 0.05 µg/mL (≈ 0.109 µM) | 0.5 µg/mL (≈ 1.09 µM) | 100 µg/mL (≈ 218 µM) | 0.5 µg/mL (≈ 1.09 µM) | 0.1 µg/mL (≈ 0.218 µM) | 0.25 µg/mL (≈ 0.544 µM) | 0.5 µg/mL (≈ 1.09 µM) | > 100 µg/mL | > 100 µg/mL | 0.1 µg/mL (≈ 0.218 µM) | 0.05 µg/mL (≈ 0.109 µM) | 0.05 µg/mL (≈ 0.109 µM) | 0.1 µg/mL (≈ 0.218 µM) | – | MIC [2]: 10 µg/mL (≈ 21.8 µM); MIC [3]: 10 µg/mL (≈ 21.8 µM); MIC [4]: 10 µg/mL (≈ 21.8 µM); MIC [5]: 10 µg/mL (≈ 21.8 µM); MIC [6]: 10 µg/mL (≈ 21.8 µM)
2 | C/C(=C\C(=O)OCc1ccccc1C#N)CC1OCC(CC2OC2C(C)C(C)O)C(O)C1O (centres unmarked) [Example 1, o-Cyanobenzyl monate A] | 2.5 µg/mL (≈ 5.44 µM) | 0.5 µg/mL (≈ 1.09 µM) | 1 µg/mL (≈ 2.18 µM) | – | 1 µg/mL (≈ 2.18 µM) | 0.5 µg/mL (≈ 1.09 µM) | 0.5 µg/mL (≈ 1.09 µM) | 2.5 µg/mL (≈ 5.44 µM) | > 100 µg/mL | 1 µg/mL (≈ 2.18 µM) | 0.25 µg/mL (≈ 0.544 µM) | 0.5 µg/mL (≈ 1.09 µM) | 1 µg/mL (≈ 2.18 µM) | > 100 µg/mL | > 100 µg/mL | 0.25 µg/mL (≈ 0.544 µM) | 0.5 µg/mL (≈ 1.09 µM) | 0.5 µg/mL (≈ 1.09 µM) | 2.5 µg/mL (≈ 5.44 µM) | 5 µg/mL (≈ 10.9 µM) | MIC [13]: 0.5 µg/mL (≈ 1.09 µM)
3 | C/C(=C\C(=O)OCc1cccc(C#N)c1)CC1OCC(C/C=C/C(C)C(C)O)C(O)C1O (centres unmarked) [Example 5, m-Cyanobenzyl monate C] | 5 µg/mL (≈ 11.3 µM) | 0.5 µg/mL (≈ 1.13 µM) | 1 µg/mL (≈ 2.25 µM) | 0.05 µg/mL (≈ 0.113 µM) | 1 µg/mL (≈ 2.25 µM) | 0.5 µg/mL (≈ 1.13 µM) | 0.5 µg/mL (≈ 1.13 µM) | 2.5 µg/mL (≈ 5.64 µM) | > 100 µg/mL | – | 2.5 µg/mL (≈ 5.64 µM) | 2.5 µg/mL (≈ 5.64 µM) | 5 µg/mL (≈ 11.3 µM) | > 100 µg/mL | > 100 µg/mL | – | 0.5 µg/mL (≈ 1.13 µM) | 0.5 µg/mL (≈ 1.13 µM) | 1 µg/mL (≈ 2.25 µM) | 5 µg/mL (≈ 11.3 µM) | MIC [13]: 2.5 µg/mL (≈ 5.64 µM)
4 | C/C(=C\C(=O)OC(C)c1ccc(C#N)cc1)CC1OCC(CC2OC2C(C)C(C)O)C(O)C1O (centres unmarked) [Example 4, 1-(p-Cyanophenyl)ethyl monate A] | 5 µg/mL (≈ 10.6 µM) | 0.5 µg/mL (≈ 1.06 µM) | 2.5 µg/mL (≈ 5.28 µM) | ≤ 0.01 µg/mL | 1 µg/mL (≈ 2.11 µM) | 1 µg/mL (≈ 2.11 µM) | 1 µg/mL (≈ 2.11 µM) | 1 µg/mL (≈ 2.11 µM) | > 100 µg/mL | 2.5 µg/mL (≈ 5.28 µM) | 0.5 µg/mL (≈ 1.06 µM) | 0.5 µg/mL (≈ 1.06 µM) | 2.5 µg/mL (≈ 5.28 µM) | > 100 µg/mL | > 100 µg/mL | 0.5 µg/mL (≈ 1.06 µM) | 1 µg/mL (≈ 2.11 µM) | 1 µg/mL (≈ 2.11 µM) | 2.5 µg/mL (≈ 5.28 µM) | 5 µg/mL (≈ 10.6 µM) | –
5 | C/C(=C\C(=O)OCc1ccc(C#N)cc1)CC1OCC(CC2OC2C(C)C(C)O)C(O)C1O (centres unmarked) [Example 3, p-Cyanobenzyl monate A] | 0.25 µg/mL (≈ 0.544 µM) | 0.1 µg/mL (≈ 0.218 µM) | 0.25 µg/mL (≈ 0.544 µM) | < 0.01 µg/mL | 0.25 µg/mL (≈ 0.544 µM) | 0.25 µg/mL (≈ 0.544 µM) | 0.1 µg/mL (≈ 0.218 µM) | 0.1 µg/mL (≈ 0.218 µM) | 100 µg/mL (≈ 218 µM) | 0.25 µg/mL (≈ 0.544 µM) | – | 0.1 µg/mL (≈ 0.218 µM) | 0.25 µg/mL (≈ 0.544 µM) | > 100 µg/mL | > 100 µg/mL | 0.1 µg/mL (≈ 0.218 µM) | 0.1 µg/mL (≈ 0.218 µM) | 0.25 µg/mL (≈ 0.544 µM) | 0.25 µg/mL (≈ 0.544 µM) | 0.5 µg/mL (≈ 1.09 µM) | MIC [2]: 10 µg/mL (≈ 21.8 µM); MIC [3]: 40 µg/mL (≈ 87 µM); MIC [14]: 5 µg/mL (≈ 10.9 µM); MIC [4]: 10 µg/mL (≈ 21.8 µM); MIC [15]: 5 µg/mL (≈ 10.9 µM); MIC [5]: 10 µg/mL (≈ 21.8 µM); MIC [6]: 20 µg/mL (≈ 43.5 µM); MIC [13]: 0.1 µg/mL (≈ 0.218 µM)
6 | C/C(=C\C(=O)OCc1cc(C#N)cc(C#N)c1)CC1OCC(CC2OC2C(C)C(C)O)C(O)C1O (centres unmarked) [Example 6, 3,5-Dicyanobenzyl monate A] | 2.5 µg/mL (≈ 5.16 µM) | 0.05 µg/mL (≈ 0.103 µM) | 0.1 µg/mL (≈ 0.206 µM) | 0.025 µg/mL (≈ 0.0516 µM) | 0.1 µg/mL (≈ 0.206 µM) | 0.1 µg/mL (≈ 0.206 µM) | 0.05 µg/mL (≈ 0.103 µM) | 2.5 µg/mL (≈ 5.16 µM) | 100 µg/mL (≈ 206 µM) | – | – | 0.5 µg/mL (≈ 1.03 µM) | 5 µg/mL (≈ 10.3 µM) | > 100 µg/mL | > 100 µg/mL | 0.5 µg/mL (≈ 1.03 µM) | 0.05 µg/mL (≈ 0.103 µM) | 0.05 µg/mL (≈ 0.103 µM) | 0.1 µg/mL (≈ 0.206 µM) | – | MIC [13]: 1 µg/mL (≈ 2.06 µM)
